The test system of this assay is periodontopathic bacteria specific aminopeptidase activity. In words: Hydrolytic activity of saliva supernatant (Experiment 8). The assay is classed as biochemical. As to conditions: 37° C. for 4 hours, Table 8. Here is the method: A saliva mixture was collected from a group consisting of ten healthy subjects and centrifuged to obtain a supernatant. Likewise, centrifuged supernatants were obtained from a group of ten subjects with adult periodontitis and a group of four localized juvenile periodontitis. The supernatant was used as a specimen and its hydrolytic activity was determined according to the same manner as described in Experiment 4 except that the reaction was carried out at 37° C. for 4 hours. As the substrates, there were used N-carbobenzoxy-valyl-glycyl-arginine-p-nitrophenol (CxVGR-pNP), N-carbobenzoxy-valyl-glycylarginine-4-methoxy-2-naphthylamide (CxVGR-4NA) and N-carbobenzoxy-valyl-glycyl-arginine-β-naphthylamide (CxVGR-βNA). Color was developed by using lN sodium hydroxide for CxVGR-pNP and Fast Blue BB for CxVGR-4NA and CxVGR-βNA.
According to the same manner as described in Experiment 7, hydrolytic activity was tested by using lysylproline-p-nitroanilide (KP-pNA), lysyl-proline-4-methoxy-2-naphthylamide (KP-4NA) and lysyl-proline-β-naphthylamide (KP-βNA)as the substrates. Color was developed by using lN sodium hydroxide for KP-pNA and Fast Blue BB for KP-4-NA and KP-βNA.

Where [1] appears, read: Localized juvenile periodontitis subjects.

Where a SMILES comes first, the peptide text is derived from it. The star is where a group is joined. pNA = O=[N+]([O-])c1ccc(N*)cc1

Take `COc1cc(NC(=O)[C@@H]2CCCN2C(=O)[C@@H](N)CCCCN)cc2ccccc12` [KP-4NA, lysyl-proline-4-methoxy-2-naphthylamide]: the hydrolytic activity worked out at 35.5 ± 10.1 nmol/mL (Adult Periodontitis subjects), 16.0 ± 10.8 nmol/mL (Healthy subjects) and 32.3 ± 8.9 nmol/mL under setting [1].

For the compound `NCCCC[C@H](N)C(=O)N1CCC[C@H]1C(=O)Nc1ccc([N+](=O)[O-])cc1` [KP-pNA, lysylproline-p-nitroanilide] (H-Lys-Pro-pNA), the hydrolytic activity by setting is: (Adult Periodontitis subjects) 34.3 ± 9.8 nmol/mL; (Healthy subjects) 15.0 ± 9.4 nmol/mL; under setting [1], 31.5 ± 9.7 nmol/mL.

These data come from patent publication US5137811A, “Method for diagnosing periodontal diseases with a substrate specific for aminopeptidase activity of periodontopathic bacteria” (Sunstar Kabushiki Kaisha, priority 1986, dated 1992).
